The source of these data is US11203577B2, “Sulfonyl-structure-containing triazinone derivatives, their preparation methods and their uses in insect killing and/or bacterium killing” (Nankai University, priority 2017, dated 2021).

In one data set the test system is Cucumber fusarium wilt. As to the kind of experiment: In vitro fungicidal activity, PDA colony diameter. In kind it is cell-based. The settings on record: 96 h, 50 mg/kg, inhibition of colony diameter, read-out: Fungicidal activity (%) Cucumber fusarium wilt.
Data set [1] deals with Cercospora brown spot of peanut. Description: In vitro fungicidal activity, PDA colony diameter. In kind it is cell-based. To be noted: 96 h, 50 mg/kg, inhibition of colony diameter, read-out: Fungicidal activity (%) Cercospora brown spot of peanut.
The test system of data set [2] is Corn southern leaf blight. As to the kind of experiment: In vitro fungicidal activity, PDA colony diameter. In kind it is cell-based. The settings on record: 50 mg/kg, inhibition of colony diameter; read-out: Fungicidal activity (%) Corn southern leaf blight.
For a further data set, the system named is Watermelon anthracnose. Description: In vitro fungicidal activity, PDA colony diameter. The format is cell-based. To be noted: 50 mg/kg, inhibition of colony diameter; read-out: Fungicidal activity (%) Watermelon anthracnose.
The subject of the next data set is Rice bakanae disease. As to the kind of experiment: In vitro fungicidal activity, PDA colony diameter. The format is cell-based. The settings on record: 50 mg/kg, inhibition of colony diameter; read-out: Fungicidal activity (%) Rice bakanae disease.
The subject of another data set is Rice sheath blight. Description: In vitro fungicidal activity, PDA colony diameter. In kind it is cell-based. To be noted: 50 mg/kg, inhibition of colony diameter; read-out: Fungicidal activity (%) Rice sheath blight.
In another data set the test system is Apple ring rot. Description: In vitro fungicidal activity, PDA colony diameter. To be noted: inhibition of colony diameter. In kind it is cell-based. As to the method: (§1) Here, the test is described in an example of Alternaria solani; it can be replaced by other fungi.
(§2) In vitro testing method: Alternaria solani is inoculated to a PDA culture medium and cultured for 7 days, a fungus dish with a diameter of […] is prepared on the periphery of the colony with a punch and inoculated to a PDA culture medium that contains pesticide at a concentration of 50 mg/kg and a PDA culture medium that doesn't contain the pesticide, and are cultured for 4 days respectively; then, the colony diameters are measured, and the inhibition percentages of the pesticides are calculated by comparing with the control sample.

Data set [3] deals with Capsicum phytophthora blight. Description: In vitro fungicidal activity, PDA colony diameter. The settings on record: 96 h. In kind it is cell-based. As to the method:
as §1, §2

The next data set has as its system Tomato early blight. Description: In vitro fungicidal activity, PDA colony diameter. To be noted: 50 mg/kg, inhibition of colony diameter; read-out: Fungicidal activity (%) Tomato early blight. The format is cell-based, Alternaria solani.
The next data set deals with Wheat head blight. Description: whole plant or invertebrate. The format is cell-based. To be noted: Triticum aestivum, read-out: Fungicidal activity (%) Wheat head blight.
The subject of another data set is Potato late blight. As to the kind of experiment: microbe, parasite or virus in culture. The format is cell-based. The settings on record: Phytophthora infestans, 96 h, read-out: Fungicidal activity (%) Potato late blight.
In a further data set the test system is Sclerotinia rot of colza. As to the kind of experiment: In vitro fungicidal activity, PDA colony diameter. In kind it is cell-based. The settings on record: 96 h, 50 mg/kg, inhibition of colony diameter, read-out: Fungicidal activity (%) Sclerotinia rot of colza.
The subject of a further data set is Wheat sheath blight. As to the kind of experiment: In vitro fungicidal activity, PDA colony diameter. The format is cell-based. To be noted: 50 mg/kg, inhibition of colony diameter; read-out: Fungicidal activity (%) Wheat sheath blight.
Data set [4] has as its system bean aphides (Aphis laburni Kaltenbach). Description: Test of insecticidal activity against aphides (leaf immersion, checked after 96 h). To be noted: Aphis, 96 h, read-out: Mortalities (%) against aphides.
Procedure: The insecticidal activity against aphides is tested through the following steps: the tested aphides are bean aphides (Aphis laburni Kaltenbach), a normal colony fed with broad bean leaves in a laboratory. The pesticide is weighed, 1 mL DMF is added to dissolve the pesticide, then two drops of emulsifier, Tween-20 are added, and distilled water is added in an appropriate amount; the mixture is stirred to a homogeneous state to prepare pesticide solution at required concentration (see the following table for the specific concentration). […] In a control group, only emulsifier and solvent are added into distilled water, and the mixture is stirred to a homogeneous state.
In the next data set the test system is Maize borers. Description: Test of insecticidal activity against maize borers (leaf immersion). The settings on record: read-out: Mortalities (%) Maize borers.
For a further data set, the system named is Cotton bollworms. As to the kind of experiment: Test of insecticidal activity against cotton bollworms (pesticide mixed into feedstuff). To be noted: read-out: Mortalities (%) Cotton bollworms.
The test system of the next data set is Armyworms. As to the kind of experiment: Test of insecticidal activity against armyworms (leaf immersion). To be noted: 600 mg/kg, 3-4 days.
Data set [5] relates to mosquito larvae (Culer pipiens pallens). Description: Test of insecticidal activity against mosquito larvae (checked after 24 h). To be noted: 24 h, read-out: Mortalities (%) against mosquito larvae.

Procedure for Cotton bollworms: Method of testing against cotton bollworms: the pesticide is mixed into the feedstuff, i.e., 3 mL prepared solution is added into about 27 g freshly prepared feedstuff; thus, required concentration is obtained by diluting by 10 times.

On to `COC(=O)Nc1nc2ccccc2[nH]1` [Carbendazim, reference compound], for which the inhibition of growth at 50 mg/kg in the data set on Cucumber fusarium wilt was below 50%; in data set [1], below 50%; in data set [3], below 50%; in the data set with Potato late blight it was 100%; in the data set with Sclerotinia rot of colza, 100%. Besides, the inhibition at 50 mg/kg in data set [2] was 100%; with Watermelon anthracnose, 100%; with Rice bakanae disease, below 50%; in the data set on Rice sheath blight, 100%; with Apple ring rot, below 50%; with Tomato early blight it was below 50%. The inhibition at 50 mg/kg in the data set with Wheat head blight and with Wheat sheath blight was 100% each time.

Regarding `N#Cc1c(Cl)c(Cl)c(Cl)c(C#N)c1Cl` [Chlorothalonil, reference compound], the inhibition of growth at 50 mg/kg with Cucumber fusarium wilt is 100%; in data set [1], 73.3%; in data set [3] it was 100%; in the data set on Potato late blight, 86.4%; in the data set on Sclerotinia rot of colza it was below 50%. Further, the inhibition at 50 mg/kg in data set [2] was determined as 91.3%; with Watermelon anthracnose it was 91.3%; in the data set with Rice bakanae disease it was 100%; in the data set on Rice sheath blight, 100%; with Apple ring rot it was 100%; in the data set on Tomato early blight, 73.3%. The inhibition at 50 mg/kg in the data set with Wheat head blight is below 50%; in the data set on Wheat sheath blight, 100%.

On to `CC1=NNC(=O)N(NS(C)(=O)=O)C1` [Ia-1, N-(6-methyl-3-oxo-2,3-dihydro-1,2,4-triazin-4(5H)-yl)-methylsulfonylamide], for which the inhibition of growth at 50 mg/kg with Cucumber fusarium wilt was 0%; in [1] it was 26.3%; in data set [3], 46.9%; in the data set on Potato late blight it was 33.3%; in the data set with Sclerotinia rot of colza, 31.7%. Also, the inhibition at 50 mg/kg in [2] worked out at 20.8%; in the data set on Watermelon anthracnose, 20.8%; in the data set on Rice bakanae disease it was 27.8%; in the data set on Rice sheath blight, 11.1%; in the data set on Apple ring rot, 31%; with Tomato early blight, 9.5%. The inhibition at 50 mg/kg with Wheat head blight worked out at 13.3%; in the data set on Wheat sheath blight, 63.6%. Besides, in [4], the mortality at 5 mg/kg stood at 25%. The results for the mortality at 10 mg/kg in [4] and in [5] were 100% and 55%, respectively. Further, in data set [4], the mortality at 100 mg/kg turned out to be 100%. Besides, the mortality at 600 mg/kg in [4] is 100%; with Maize borers it was 0%; in the data set on Cotton bollworms, 40%. Also, in the data set with Armyworms, the “Mortalities (%) Armyworms” value is given as 5%.

For the molecule `CCS(=O)(=O)NN1CC(C)=NNC1=O` [Ia-2, N-(6-methyl-3-oxo-2,3-dihydro-1,2,4-triazin-4(5H)-yl)-ethylsulfonamide], the inhibition of growth at 50 mg/kg turned out to be 5% in the data set on Cucumber fusarium wilt; 15.8% in data set [1]; 36.7% in data set [3]; 22.2% with Potato late blight; 56.7% in the data set with Sclerotinia rot of colza. Also, the inhibition at 50 mg/kg worked out at 29.2% in data set [2]; 33.3% with Watermelon anthracnose; 50% in the data set with Rice bakanae disease; 34.9% with Rice sheath blight; 20.7% with Apple ring rot; 33.3% in the data set on Tomato early blight. In addition, the inhibition at 50 mg/kg was found to be 20% in the data set with Wheat head blight and 63.6% in the data set on Wheat sheath blight. Further, the mortality at 10 mg/kg stood at 50% in data set [4] and 20% in [5]. Moreover, in [4], the mortality at 100 mg/kg came out at 90%. For the same molecule, the mortality at 600 mg/kg in data set [4] turned out to be 100%; in the data set on Maize borers, 15%; in the data set on Cotton bollworms it was 5%. Further, the “Mortalities (%) Armyworms” value in the data set on Armyworms is 10%.

In the case of `CCCS(=O)(=O)NN1CC(C)=NNC1=O` [Ia-3, N-(6-methyl-3-oxo-2,3-dihydro-1,2,4-triazin-4(5H)-yl)-n-propylsulfonamide], the inhibition of growth at 50 mg/kg in the data set on Cucumber fusarium wilt turned out to be 0%; in data set [1] it was 26.3%; in data set [3] it was 24.5%; in the data set on Potato late blight, 22.2%; with Sclerotinia rot of colza, 35%. In addition, the inhibition at 50 mg/kg was determined as 16.7% in [2]; 12.5% in the data set with Watermelon anthracnose; 16.7% in the data set on Rice bakanae disease; 14.3% in the data set on Rice sheath blight; 0% with Apple ring rot; 0% in the data set on Tomato early blight. Moreover, the inhibition at 50 mg/kg with Wheat head blight stood at 3.3%; with Wheat sheath blight, 47.7%. The figures for the mortality at 10 mg/kg in data set [4] and in [5] were 40% and 55%, respectively. For the same molecule, in data set [4], the mortality at 100 mg/kg was determined as 75%. Moreover, the mortality at 600 mg/kg is 95% in data set [4], 20% in the data set with Maize borers and 10% in the data set on Cotton bollworms. Further, the “Mortalities (%) Armyworms” value in the data set with Armyworms was found to be 25%.

On to `CC1=NNC(=O)N(NS(=O)(=O)C2CC2)C1` [Ia-5, N-(6-methyl-3-oxo-2,3-dihydro-1,2,4-triazin-4(5H)-yl)-cyclopropylsulfonamide], for which the inhibition of growth at 50 mg/kg in the data set with Cucumber fusarium wilt came out at 8.8%; in [1], 8%; in data set [3], 5.6%; with Potato late blight it was 64.5%; in the data set on Sclerotinia rot of colza it was 21%. In addition, the inhibition at 50 mg/kg in data set [2] is 18.7%; in the data set with Watermelon anthracnose it was 16.4%; in the data set with Rice bakanae disease it was 20.7%; in the data set with Rice sheath blight it was 19.8%; in the data set on Apple ring rot, 10.8%; in the data set on Tomato early blight, 14.9%. Moreover, the inhibition at 50 mg/kg in the data set on Wheat head blight is 10.8%; with Wheat sheath blight it was 8.7%. For the same molecule, the mortality at 10 mg/kg in data set [4] was 30%; in data set [5], 10%. Moreover, in data set [4], the mortality at 100 mg/kg stood at 85%. In addition, the mortality at 600 mg/kg was determined as 100% in data set [4], 10% with Maize borers and 15% with Cotton bollworms. For the same molecule, the “Mortalities (%) Armyworms” value in the data set on Armyworms stood at 10%.

Take `CC1=NNC(=O)N(NS(=O)(=O)C2CCCCC2)C1` [Ia-6, N-(6-methyl-3-oxo-2,3-dihydro-1,2,4-triazin-4(5H)-yl)-cyclohexylsulfonamide]: the inhibition of growth at 50 mg/kg in the data set on Cucumber fusarium wilt came out at 20.6%; in data set [1] it was 13%; in data set [3], 18.8%; in the data set on Potato late blight it was 3.1%; in the data set on Sclerotinia rot of colza, 31.6%. The inhibition at 50 mg/kg in data set [2] came out at 7.7%; in the data set with Watermelon anthracnose, 12.5%; in the data set with Rice bakanae disease it was 12.5%; in the data set on Rice sheath blight it was 11.6%; in the data set with Apple ring rot, 39.2%; in the data set on Tomato early blight it was 12.9%. For the same molecule, the inhibition at 50 mg/kg with Wheat head blight is 10.9%; in the data set with Wheat sheath blight, 30.9%. The mortality at 100 mg/kg in data set [4] is 45%. The results for the mortality at 600 mg/kg (in [4]; in the data set on Maize borers; with Cotton bollworms) were 85%, 40% and 30%, respectively. Besides, the “Mortalities (%) Armyworms” value in the data set on Armyworms was 50%. For the same molecule, the mortality at 10 mg/kg in data set [5] came to 70%.
